*1 amine or outer side, *2 acyl side, *3 side chain or, on linkers, in order; H or OH if unused. Where a SMILES comes first, the peptide text is derived from it. Bridges are numbered along the chain shown (N, C = ends). [ ]: non-standard residue; d: D form. The star is where a group is joined. hTyr(3S-OH,4S-OH,3'-OSO3H) = N[C@H](C(=O)O)[C@H](O)[C@@H](O)c1ccc(O)c(OS(=O)(=O)O)c1; Orn(4R-OH,5R-OH) = O=C([C@H](C[C@@H](O)[C@@H](O)N[*:3])N[*:1])[*:2]; Pro(3S-OH,4S-Me) = C[C@H]1CN[C@H](C(=O)O)[C@H]1O; X1 = CCCCCOc1ccc(-c2cc(-c3ccc(C(=O)*)cc3)no2)cc1; Gln(3R-OH) = NC(=O)C[C@@H](O)[C@H](N)C(=O)O; Hyp = O=C(O)[C@@H]1C[C@@H](O)CN1
Key:
Estrogen receptor = target: T1, Estrogen receptor (Homo sapiens, UniProt P03372)
T1 sequence (P03372 whole entry): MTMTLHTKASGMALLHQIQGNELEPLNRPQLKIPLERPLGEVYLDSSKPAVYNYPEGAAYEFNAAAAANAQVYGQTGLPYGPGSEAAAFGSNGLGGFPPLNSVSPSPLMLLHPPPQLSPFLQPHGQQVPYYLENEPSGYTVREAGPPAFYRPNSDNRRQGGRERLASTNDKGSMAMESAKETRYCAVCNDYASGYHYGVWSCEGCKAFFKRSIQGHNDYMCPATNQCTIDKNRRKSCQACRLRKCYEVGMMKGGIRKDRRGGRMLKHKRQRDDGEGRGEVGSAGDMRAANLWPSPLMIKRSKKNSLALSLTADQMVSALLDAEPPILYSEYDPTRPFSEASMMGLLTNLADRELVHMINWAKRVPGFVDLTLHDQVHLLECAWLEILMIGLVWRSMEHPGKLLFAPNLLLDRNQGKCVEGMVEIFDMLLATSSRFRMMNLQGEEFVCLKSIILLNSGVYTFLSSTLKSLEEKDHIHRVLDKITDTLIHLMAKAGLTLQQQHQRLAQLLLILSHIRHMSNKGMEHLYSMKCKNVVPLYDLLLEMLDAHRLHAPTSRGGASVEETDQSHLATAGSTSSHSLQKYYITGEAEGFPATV

[1] = target: Gamma-aminobutyric acid receptor subunit alpha-1 (Rattus norvegicus, UniProt P62813)
Vasopressin V2 receptor = Vasopressin V2 receptor (Homo sapiens, UniProt P30518)
B2 bradykinin receptor = target: T2, B2 bradykinin receptor (Homo sapiens, UniProt P30411)
T2 sequence (P30411 whole entry): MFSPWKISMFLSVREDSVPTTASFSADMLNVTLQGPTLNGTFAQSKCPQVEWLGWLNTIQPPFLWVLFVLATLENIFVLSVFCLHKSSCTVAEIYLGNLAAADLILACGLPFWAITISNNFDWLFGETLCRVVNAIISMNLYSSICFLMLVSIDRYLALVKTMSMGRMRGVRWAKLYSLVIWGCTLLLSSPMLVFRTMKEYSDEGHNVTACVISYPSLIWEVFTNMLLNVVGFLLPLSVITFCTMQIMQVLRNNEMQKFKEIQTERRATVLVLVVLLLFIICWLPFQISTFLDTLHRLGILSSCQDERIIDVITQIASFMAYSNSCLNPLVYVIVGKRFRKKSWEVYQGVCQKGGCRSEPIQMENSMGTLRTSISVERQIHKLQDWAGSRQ

[2] = target: T3, Corticotropin-releasing factor receptor 1 (Homo sapiens, UniProt P34998)
T3 sequence (P34998 whole entry): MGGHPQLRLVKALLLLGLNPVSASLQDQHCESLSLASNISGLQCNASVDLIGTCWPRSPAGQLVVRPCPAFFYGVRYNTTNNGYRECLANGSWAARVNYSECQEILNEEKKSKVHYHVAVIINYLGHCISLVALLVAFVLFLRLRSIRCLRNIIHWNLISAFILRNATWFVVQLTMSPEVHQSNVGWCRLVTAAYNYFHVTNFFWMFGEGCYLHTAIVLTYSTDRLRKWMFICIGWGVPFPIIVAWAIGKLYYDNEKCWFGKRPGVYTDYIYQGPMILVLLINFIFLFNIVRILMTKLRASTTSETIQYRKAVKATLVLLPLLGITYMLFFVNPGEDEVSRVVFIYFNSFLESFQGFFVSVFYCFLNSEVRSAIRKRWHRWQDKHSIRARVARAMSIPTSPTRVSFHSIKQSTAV

[3] = target: T4, 5-hydroxytryptamine receptor 1A (Homo sapiens, UniProt P08908); type: functional, cell-based
T4 sequence (P08908 whole entry): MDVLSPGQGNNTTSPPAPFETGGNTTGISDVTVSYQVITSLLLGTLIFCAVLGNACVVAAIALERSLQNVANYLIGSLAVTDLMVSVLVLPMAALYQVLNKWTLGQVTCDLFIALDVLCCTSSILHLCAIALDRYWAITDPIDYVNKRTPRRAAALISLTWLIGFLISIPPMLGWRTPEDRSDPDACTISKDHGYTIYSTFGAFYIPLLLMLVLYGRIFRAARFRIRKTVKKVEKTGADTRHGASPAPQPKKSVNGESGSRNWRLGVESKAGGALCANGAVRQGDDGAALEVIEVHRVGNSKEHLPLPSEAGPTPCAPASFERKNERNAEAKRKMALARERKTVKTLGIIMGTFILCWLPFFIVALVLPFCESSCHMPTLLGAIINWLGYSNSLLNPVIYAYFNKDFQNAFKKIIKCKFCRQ

Motilin receptor = Motilin receptor (Homo sapiens, UniProt O43193)
Progesterone receptor = target: T5, Progesterone receptor (Homo sapiens, UniProt P06401); type: functional
T5 sequence (P06401 whole entry): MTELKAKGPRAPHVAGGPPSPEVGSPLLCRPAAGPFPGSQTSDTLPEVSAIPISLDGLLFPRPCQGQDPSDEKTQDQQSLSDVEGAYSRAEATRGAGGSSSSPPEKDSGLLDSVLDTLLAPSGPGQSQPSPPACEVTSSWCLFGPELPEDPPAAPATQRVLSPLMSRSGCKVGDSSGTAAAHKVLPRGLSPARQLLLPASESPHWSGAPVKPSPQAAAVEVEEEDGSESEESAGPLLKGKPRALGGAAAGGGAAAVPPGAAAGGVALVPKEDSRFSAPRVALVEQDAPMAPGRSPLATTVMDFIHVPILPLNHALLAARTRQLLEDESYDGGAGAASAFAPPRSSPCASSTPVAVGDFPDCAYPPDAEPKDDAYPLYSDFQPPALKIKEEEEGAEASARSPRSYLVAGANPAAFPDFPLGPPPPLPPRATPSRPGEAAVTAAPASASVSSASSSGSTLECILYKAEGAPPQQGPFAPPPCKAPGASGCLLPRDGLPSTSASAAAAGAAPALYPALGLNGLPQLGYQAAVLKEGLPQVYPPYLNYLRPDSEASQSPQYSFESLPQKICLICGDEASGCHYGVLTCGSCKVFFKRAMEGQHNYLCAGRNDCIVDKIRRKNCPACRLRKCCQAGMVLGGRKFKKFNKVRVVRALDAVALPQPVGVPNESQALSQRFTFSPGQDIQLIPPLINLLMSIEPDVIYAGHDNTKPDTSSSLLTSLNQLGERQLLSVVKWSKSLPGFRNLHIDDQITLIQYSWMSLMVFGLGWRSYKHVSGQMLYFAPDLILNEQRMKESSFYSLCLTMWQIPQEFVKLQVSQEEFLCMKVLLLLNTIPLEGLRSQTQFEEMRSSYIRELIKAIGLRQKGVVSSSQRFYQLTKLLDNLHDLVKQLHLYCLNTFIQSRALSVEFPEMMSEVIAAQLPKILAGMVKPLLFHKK
Further: assay procedure not described here.

Chain of Motilin receptor (O43193 whole entry): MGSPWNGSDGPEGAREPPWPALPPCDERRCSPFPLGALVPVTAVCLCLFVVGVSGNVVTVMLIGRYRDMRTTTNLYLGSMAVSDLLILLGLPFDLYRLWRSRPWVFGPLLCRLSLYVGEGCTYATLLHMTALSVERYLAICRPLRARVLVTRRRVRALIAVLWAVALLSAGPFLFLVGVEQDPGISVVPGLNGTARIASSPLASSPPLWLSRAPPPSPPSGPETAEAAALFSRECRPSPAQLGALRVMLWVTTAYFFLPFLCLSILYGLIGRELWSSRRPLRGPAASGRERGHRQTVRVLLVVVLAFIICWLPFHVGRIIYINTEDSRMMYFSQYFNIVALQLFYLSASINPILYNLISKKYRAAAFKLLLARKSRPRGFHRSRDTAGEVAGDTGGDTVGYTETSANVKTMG
Chain of Vasopressin V2 receptor (P30518 whole entry): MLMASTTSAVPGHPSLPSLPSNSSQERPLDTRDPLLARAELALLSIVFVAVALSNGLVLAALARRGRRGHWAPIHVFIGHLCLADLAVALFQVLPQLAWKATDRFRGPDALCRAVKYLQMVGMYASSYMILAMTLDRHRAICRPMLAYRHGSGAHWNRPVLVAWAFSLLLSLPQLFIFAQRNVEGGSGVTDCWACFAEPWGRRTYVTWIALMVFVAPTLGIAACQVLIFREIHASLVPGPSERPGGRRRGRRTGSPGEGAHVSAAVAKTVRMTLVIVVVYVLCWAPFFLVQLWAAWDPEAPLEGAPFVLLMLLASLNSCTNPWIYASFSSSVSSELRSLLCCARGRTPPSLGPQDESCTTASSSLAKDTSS
Chain of Gamma-aminobutyric acid receptor subunit alpha-1 (P62813 whole entry): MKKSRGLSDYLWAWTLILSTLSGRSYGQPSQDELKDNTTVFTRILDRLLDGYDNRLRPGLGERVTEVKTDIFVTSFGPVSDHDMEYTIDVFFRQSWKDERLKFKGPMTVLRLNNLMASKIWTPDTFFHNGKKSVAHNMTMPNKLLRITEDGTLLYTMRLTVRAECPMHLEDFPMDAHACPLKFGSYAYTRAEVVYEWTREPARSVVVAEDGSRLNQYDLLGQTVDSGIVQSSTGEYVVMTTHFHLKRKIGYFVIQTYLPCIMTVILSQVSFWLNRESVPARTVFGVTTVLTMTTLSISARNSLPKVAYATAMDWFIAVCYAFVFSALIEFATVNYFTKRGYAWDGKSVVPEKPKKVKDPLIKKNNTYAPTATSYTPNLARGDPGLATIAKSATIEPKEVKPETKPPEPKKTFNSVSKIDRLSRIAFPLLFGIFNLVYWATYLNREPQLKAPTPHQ

C[C@]12CCC(=O)C=C1CC[C@@H]1[C@@H]2[C@@H](O)C[C@@]2(C)[C@H]1CC[C@]2(O)C(=O)COC(=O)CCC(=O)O [HYDROCORTISONE HEMISUCCINATE ANHYDROUS] gave an AC50 (Estrogen receptor) greater than 30 µM and an AC50 [1] greater than 30 µM.
In the case of N=C(N)NCc1cccc([123I])c1 [IOBENGUANE I 123], the AC50 (Estrogen receptor) is reported as greater than 30 µM and the AC50 [1] is reported as greater than 30 µM.
For CC(C)(N)C(=O)N[C@H](Cc1c[nH]c2ccccc12)C(=O)N[C@H](Cc1c[nH]c2ccccc12)NC=O [MACIMORELIN], the AC50 (Estrogen receptor) was greater than 30 µM and the AC50 [1] was greater than 30 µM.
With C=C1c2c(Cl)ccc(O)c2C(=O)C2=C(O)[C@]3(O)C(=O)C(C(N)=O)=C(O)[C@@H](N(C)C)[C@@H]3[C@@H](O)[C@H]12 [MECLOCYCLINE] the AC50 (Estrogen receptor) was greater than 30 µM and the AC50 [1] was greater than 30 µM.
In the case of Cc1cnc(NC(=O)C2=C(O)c3ccccc3S(=O)(=O)N2C)s1 [MELOXICAM], the AC50 (Vasopressin V2 receptor) is reported as greater than 30 µM, the AC50 (B2 bradykinin receptor) is reported as greater than 30 µM and the AC50 [2] is reported as greater than 30 µM. For the same compound, the AC50 [3] was greater than 10 µM and the AC50 (Motilin receptor) was greater than 10 µM.
For CC(=O)/N=c1/sc(S(N)(=O)=O)nn1C [METHAZOLAMIDE], the AC50 (Vasopressin V2 receptor) was greater than 10 µM, the AC50 (B2 bradykinin receptor) was greater than 10 µM and the AC50 (Estrogen receptor) was greater than 30 µM. For the same compound, the AC50 [3] was greater than 10 µM, the AC50 (Motilin receptor) was greater than 10 µM and the AC50 (Progesterone receptor) was greater than 10 µM.
For CCCCCOc1ccc(-c2cc(-c3ccc(C(=O)N[C@H]4C[C@@H](O)[C@@H](O)NC(=O)[C@@H]5[C@@H](O)[C@@H](C)CN5C(=O)[C@H]([C@H](O)CC(N)=O)NC(=O)[C@H]([C@H](O)[C@@H](O)c5ccc(O)c(OS(=O)(=O)O)c5)NC(=O)[C@@H]5C[C@@H](O)CN5C(=O)[C@H]([C@@H](C)O)NC4=O)cc3)no2)cc1 [MICAFUNGIN] (X1-[Orn(4R-OH,5R-OH)]T[Hyp][hTyr(3S-OH,4S-OH,3'-OSO3H)][Gln(3R-OH)][Pro(3S-OH,4S-Me)]; lactam 1-C), the AC50 (Estrogen receptor) was 7.25 µM and the AC50 [1] was greater than 30 µM.
Work on C#C[C@]1(O)CC[C@H]2[C@@H]3CCC4=C(CCC(=O)C4)[C@H]3CC[C@@]21C [NORETHYNODREL] yielded an AC50 [1] greater than 30 µM.
Work on CN(C)c1cc(CNCC(C)(C)C)c(O)c2c1C[C@H]1C[C@H]3[C@H](N(C)C)C(O)=C(C(N)=O)C(=O)[C@@]3(O)C(O)=C1C2=O [OMADACYCLINE] yielded an AC50 (Vasopressin V2 receptor) greater than 30 µM, an AC50 (B2 bradykinin receptor) greater than 30 µM and an AC50 (Estrogen receptor) greater than 30 µM. For the same compound, the AC50 [1] was greater than 30 µM, the AC50 (Motilin receptor) was greater than 30 µM and the AC50 (Progesterone receptor) was greater than 30 µM.
In the case of COc1ccnc(C[S+]([O-])c2nc3ccc(OC(F)F)cc3[nH]2)c1OC (stereo unspecified) [PANTOPRAZOLE], the AC50 (Vasopressin V2 receptor) is reported as greater than 30 µM, the AC50 (B2 bradykinin receptor) is reported as greater than 30 µM and the AC50 [2] is reported as greater than 30 µM. For the same compound, the AC50 [3] was greater than 10 µM and the AC50 (Motilin receptor) was greater than 10 µM.
Compound CC(C)COc1ccc(CNC(=O)N(Cc2ccc(F)cc2)C2CCN(C)CC2)cc1 [PIMAVANSERIN] has an AC50 (Estrogen receptor) greater than 30 µM and an AC50 [1] greater than 30 µM.
CNC(=O)c1cc(Oc2ccc(NC(=O)Nc3ccc(Cl)c(C(F)(F)F)c3)c(F)c2)ccn1 [REGORAFENIB] was tested, and the AC50 (Estrogen receptor) was greater than 30 µM, the AC50 [1] was greater than 30 µM and the AC50 (Progesterone receptor) was greater than 30 µM.
With CC(=O)S[C@@H]1CC2=CC(=O)CC[C@]2(C)[C@H]2CC[C@@]3(C)[C@@H](CC[C@@]34CCC(=O)O4)[C@H]12 [SPIRONOLACTONE] the AC50 (Vasopressin V2 receptor) was greater than 30 µM, the AC50 (B2 bradykinin receptor) was greater than 30 µM and the AC50 [2] was greater than 30 µM. For the same compound, the AC50 [3] was greater than 30 µM and the AC50 (Motilin receptor) was greater than 30 µM.
CN1CCN(CCCN2c3ccccc3Sc3ccc(S(=O)(=O)N(C)C)cc32)CC1 [THIOPROPERAZINE] gave an AC50 [1] greater than 30 µM.
NCCc1ccc(O)cc1 [TYRAMINE] gave an AC50 (Estrogen receptor) greater than 30 µM and an AC50 [1] greater than 30 µM.
